Each block holds one molecule with its values, some of them ahead of it. Where no end group is shown, it is not given here. [ ]: non-standard residue; d: D form. pY = N[C@@H](Cc1ccc(OP(=O)(O)O)cc1)C(=O)O
Columns and labels:
[1] = system: autophosphorylation (phosphotyrosine); assay: In vitro kinase library screen: autophosphorylation; assay type: biochemical
Method: (§1) Proteins were produced from DNA plasmids of Mock Luciferase, Promega, tyrosine kinase clone Spleen Tyrosine kinase (SYK, IMAGE ID# 3870426) and Eph receptor-A7 (EphA7, IMAGE ID# 3991628) (Incyte Genomics, CA) and immobilized on streptavidin or avidin coated NPT-IPR plates as described in the Example 7. To promote autophosphorylation in these immobilized and purified proteins, Mn++ ions were added in a 50 μl reaction containing 5 mM MgCl2, 5 mM MnCl2, 100 μM ATP, 25 mM Tris-HCl buffer pH 7.4, 0.05 mM Na3VO4, 0.004% TritonX-100, 2 mM DTT and EDTA-free protease inhibitor (Roche Molecular Biochemicals). This mixture was incubated with shaking at room temperature overnight to allow autophosphorylation. Following this incubation, wells were washed 2 times with TT-buffer and 2 times with water. Following this step, 50 ng Sulfo-TAG labeled anti-phosphotyrosine in buffer containing 25 mM Tris-HCl buffer pH 7.4, 5 mM MgCl2, 0.05 mM Na3VO4, 0.004% TritonX-100, 2 mM DTT and 0.05% IgG in a final volume of 50 μl was added followed by incubation at room temperature for 45 min. The unbound reagents were removed by one time washing with water, and the TAG label was detected in presence of 150 μl IPR assay buffer (0.4 mM Gly—Gly buffer, pH 7.8, 1 mM EDTA, 0.1 M TPA). The ECL signals were measured using an imaging plate reader.
(§2) Proteins were produced in an in vitro transcription and translation reaction as described in the Materials and Methods. […] The reaction was stopped by mixing with BB2 buffer. Biotinylated proteins from 50 μl of the mixture (representing 0.5 μl to 5 μl of TnT reaction) were immobilized onto streptavidin or avidin coated NPT-IPR plates by shaking at room temperature for 45 min. The activity of the immobilized protein towards pEY or autophosphorylation was further assayed by the methods described in examples 7 and 8.

[2] = system: autophosphorylation (phosphotyrosine); assay: Autophosphorylation activity assay of immobilized in vitro translated protein; assay type: biochemical; details: 0.5 μl of TnT reaction
Method: as §1

[3] = system: pEY; assay: In vitro kinase library screen: activity towards pEY; assay type: biochemical; details: 5 ul of expressed protein
Method: (§3) Proteins were produced in an in vitro transcription and translation reaction. […] The unbound components of the reaction containing endogenous kinases were removed by three washes with TT-buffer (25 mM Tris-HCl buffer pH 7.4 and 0.004% Triton), two five minutes washings with high-salt wash buffer (25 mM Tris-HCl buffer pH 7.4, 0.004% Triton, 1M NaCl and 5 mM DTT) and 3 more washes with TT-buffer. To these immobilized and purified proteins a tyrosine kinase substrate, 5 nM pEY (poly Glu-Tyr, Sigma, MO), was added in a 50 μl reaction solution containing 5 mM MgCl2, 5 mM MnCl2, 100 μM ATP, 25 mM Tris-HCl buffer pH 7.4, 0.05 mM Na3VO4, 0.004% TritonX-100, 2 mM DTT and EDTA-free protease inhibitor (Roche Molecular Biochemicals). This mixture was incubated with shaking at room temperature overnight to allow phosphorylation of the pEY substrate by the immobilized kinases. Following this incubation, 45 μl of this mixture was transferred to a streptavidin or avidin-coated NPT IPR plate coated with biotinylated anti-phosphotyrosine antibody (PY20, Zymed labs, CA) followed by incubation for 30 minutes at room temperature to allow the binding of the phosphorylated pEY substrate to the PY20 coated NPT plate. Following this binding step, 50 ng Sulfo-TAG labeled anti-phosphotyrosine in buffer containing 25 mM Tris-HCl buffer pH 7.4, 5 mM MgCl2, 0.05 mM Na3VO4, 0.004% TritonX-100, 2 mM DTT and 0.05% IgG was added followed by incubation at room temperature for 30 mm. The unbound reagents were removed by one time washing with water, and the TAG label was detected in presence of 150 μl IPR assay buffer (0.4 mM Gly-Gly buffer, pH 7.8, 1 mM EDTA, 0.1 M TPA). The ECL signals were measured using an imaging plate reader.
as §2

[4] = biological target: T1, Fgfr4 (Mus musculus, UniProt Q03142); assay: Kinase inhibitor profiling, pEY phosphorylation; assay type: biochemical
T1 construct: specificity data for proteins generated from a library of eighteen full-length clones; biotin on random lysines (biotin-Lys-tRNA); host or cells: rabbit reticulocyte lysate, coupled transcription/translation (TnT, Promega)
T1 sequence (Q03142 17-799): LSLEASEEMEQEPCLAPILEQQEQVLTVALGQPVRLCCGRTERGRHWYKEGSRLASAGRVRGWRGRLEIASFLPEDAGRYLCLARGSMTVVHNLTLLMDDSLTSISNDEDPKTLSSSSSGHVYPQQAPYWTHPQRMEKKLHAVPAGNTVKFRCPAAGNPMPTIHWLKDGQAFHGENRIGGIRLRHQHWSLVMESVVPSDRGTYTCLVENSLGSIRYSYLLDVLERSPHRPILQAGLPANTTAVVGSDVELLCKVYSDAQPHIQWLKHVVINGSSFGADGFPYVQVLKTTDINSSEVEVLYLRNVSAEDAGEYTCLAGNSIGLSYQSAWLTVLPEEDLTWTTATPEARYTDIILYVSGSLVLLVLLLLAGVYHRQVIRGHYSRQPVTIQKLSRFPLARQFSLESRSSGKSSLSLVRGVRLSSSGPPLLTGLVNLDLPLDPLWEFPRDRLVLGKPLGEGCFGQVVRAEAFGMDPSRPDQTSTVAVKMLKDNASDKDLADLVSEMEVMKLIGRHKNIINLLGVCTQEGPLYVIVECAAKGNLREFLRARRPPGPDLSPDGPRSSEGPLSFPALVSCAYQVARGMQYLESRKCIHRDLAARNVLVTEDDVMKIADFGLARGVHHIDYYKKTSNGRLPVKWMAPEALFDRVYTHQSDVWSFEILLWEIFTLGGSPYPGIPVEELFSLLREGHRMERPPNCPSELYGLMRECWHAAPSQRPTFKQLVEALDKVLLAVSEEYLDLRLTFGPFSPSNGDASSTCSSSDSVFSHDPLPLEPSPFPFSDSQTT
Method: as §3
(§4) Proteins were produced using 100 ng of plasmid DNA Mock (Luciferase, Promega) or tyrosine kinases (Fert2 IMAGE ID # 4485050, FGFR1 IMAGE ID # 4037899, Fgfr2 IMAGE ID # 2654352, Src IMAGE ID # 3156400, BMX IMAGE ID # 3919253, LCK IMAGE ID # 4191610, Epha7 IMAGE ID # 3991628, Ephb4 IMAGE ID # 4013934, Tek IMAGE ID # 3482498, HCK IMAGE ID # 4778819, BTK IMAGE ID # 4478463, CSK IMAGE ID # 4398416, SYK IMAGE ID # 3870426, FGR IMAGE ID # 4419973, PTK2B IMAGE ID # 4339456, FRK(IMAGE ID # 4515877, Kit IMAGE ID # 2644960, Fgfr-4 IMAGE ID # 4239139, NTRK3 IMAGE ID # 4181574, Kdr IMAGE ID # 4238984, Incyte Genomics, CA) and immobilized on SA or avidin coated NPT-IPR plates as described in previous examples. The unbound components of the translation reaction (including any endogenous kinases) were removed by 3 washes with TT-buffer (25 mM Tris-HCl buffer pH 7.4 and 0.004% Triton), two five minutes washes with high-salt wash buffer (25 mM Tris-HCl buffer pH 7.4, 0.004% Triton, 1M NaCl and 5 mM DTT) and 3 washes with TT-buffer. […] The mixture was incubated at room temperature for 10 mm before starting the kinase reaction by adding 25 μl of 200 μM ATP in buffer A. This mixture was incubated with intermittent shaking at room temperature for 2 hours to overnight to allow (a) phosphorylation of the pEY substrate and (b) autophosphorylation of the immobilized kinases. Autophosphorylation and phosphorylation of the pEY was measured as described in Examples 7 and 8.
(§5) The ECL signal in control wells produced by tyrosine kinases was compared to the wells containing inhibitor compounds. The signal produced from Mock was negligible.

[5] = biological target: T2, SYK (Homo sapiens, UniProt P43405); assay: Kinase inhibitor profiling, pEY phosphorylation; assay type: biochemical
T2 construct: autophosphorylation activity from full-length clones Spleen Tyrosine Kinase (SYK) and Eph receptor-A7 (EphA7); host or cells: rabbit reticulocyte lysate, TnT coupled in vitro transcription/translation (cell-free)
Method: as §3, §4, §5

[6] = biological target: T3, Kit (Mus musculus, UniProt P05532); assay: Kinase inhibitor profiling, pEY phosphorylation; assay type: biochemical
T3 construct: specificity data for proteins generated from a library of eighteen full-length clones; biotin on random lysines (biotin-Lys-tRNA); host or cells: rabbit reticulocyte lysate, coupled transcription/translation (TnT, Promega)
T3 sequence (P05532 25-979): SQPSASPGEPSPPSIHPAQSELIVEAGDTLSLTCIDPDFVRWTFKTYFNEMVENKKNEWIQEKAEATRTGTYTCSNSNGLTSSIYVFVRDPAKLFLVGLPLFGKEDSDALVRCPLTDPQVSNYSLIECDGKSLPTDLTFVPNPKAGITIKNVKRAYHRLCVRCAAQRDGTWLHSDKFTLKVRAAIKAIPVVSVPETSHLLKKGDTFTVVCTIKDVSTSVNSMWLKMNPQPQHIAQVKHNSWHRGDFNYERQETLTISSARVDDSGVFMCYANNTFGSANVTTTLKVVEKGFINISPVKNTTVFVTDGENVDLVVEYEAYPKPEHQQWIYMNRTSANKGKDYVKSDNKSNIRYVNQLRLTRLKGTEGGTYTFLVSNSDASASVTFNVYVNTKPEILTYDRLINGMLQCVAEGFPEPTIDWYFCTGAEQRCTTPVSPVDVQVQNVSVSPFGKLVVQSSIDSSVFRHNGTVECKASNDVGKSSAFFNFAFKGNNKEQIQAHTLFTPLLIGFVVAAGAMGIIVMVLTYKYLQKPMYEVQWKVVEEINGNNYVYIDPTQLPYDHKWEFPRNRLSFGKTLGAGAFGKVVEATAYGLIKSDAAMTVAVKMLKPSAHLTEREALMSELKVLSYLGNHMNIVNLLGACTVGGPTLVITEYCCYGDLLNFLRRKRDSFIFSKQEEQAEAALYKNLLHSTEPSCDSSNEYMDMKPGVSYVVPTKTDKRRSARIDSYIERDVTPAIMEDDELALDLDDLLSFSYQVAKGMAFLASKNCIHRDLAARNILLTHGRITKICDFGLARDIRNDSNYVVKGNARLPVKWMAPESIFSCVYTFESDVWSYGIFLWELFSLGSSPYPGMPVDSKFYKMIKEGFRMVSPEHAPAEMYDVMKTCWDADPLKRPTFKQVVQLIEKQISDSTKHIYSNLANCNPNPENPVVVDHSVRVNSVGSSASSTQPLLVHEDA
Method: as §3, §4, §5

[7] = biological target: T4, HCK (Homo sapiens, UniProt P08631); assay: Kinase inhibitor profiling, pEY phosphorylation; assay type: biochemical
T4 construct: specificity data for proteins generated from a library of eighteen full-length clones; host or cells: rabbit reticulocyte lysate, TnT coupled in vitro transcription/translation (cell-free)
T4 sequence (P08631 whole entry): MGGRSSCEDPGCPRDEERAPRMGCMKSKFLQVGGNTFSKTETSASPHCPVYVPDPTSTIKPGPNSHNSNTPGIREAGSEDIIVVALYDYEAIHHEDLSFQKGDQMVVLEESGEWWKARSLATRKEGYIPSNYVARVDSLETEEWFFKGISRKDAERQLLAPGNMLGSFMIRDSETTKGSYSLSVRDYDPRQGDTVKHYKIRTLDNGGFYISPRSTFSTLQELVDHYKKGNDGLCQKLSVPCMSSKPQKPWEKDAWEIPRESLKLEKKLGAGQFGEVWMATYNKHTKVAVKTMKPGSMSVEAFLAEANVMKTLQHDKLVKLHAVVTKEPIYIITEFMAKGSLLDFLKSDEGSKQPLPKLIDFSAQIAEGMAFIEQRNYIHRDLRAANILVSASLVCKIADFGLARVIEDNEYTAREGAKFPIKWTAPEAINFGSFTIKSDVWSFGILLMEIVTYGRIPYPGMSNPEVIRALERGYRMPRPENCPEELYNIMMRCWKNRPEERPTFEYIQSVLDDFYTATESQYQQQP
Method: as §3, §4, §5

[8] = biological target: T5, CSK (Homo sapiens, UniProt P41240); assay: Kinase inhibitor profiling, pEY phosphorylation; assay type: biochemical
T5 construct: specificity data for proteins generated from a library of eighteen full-length clones; host or cells: rabbit reticulocyte lysate, TnT coupled in vitro transcription/translation (cell-free)
Method: as §3, §4, §5

[9] = biological target: T6, PTK2B (Homo sapiens, UniProt Q14289); assay: Kinase inhibitor profiling, pEY phosphorylation; assay type: biochemical
T6 construct: specificity data for proteins generated from a library of eighteen full-length clones; host or cells: rabbit reticulocyte lysate, TnT coupled in vitro transcription/translation (cell-free)
T6 sequence (Q14289 whole entry): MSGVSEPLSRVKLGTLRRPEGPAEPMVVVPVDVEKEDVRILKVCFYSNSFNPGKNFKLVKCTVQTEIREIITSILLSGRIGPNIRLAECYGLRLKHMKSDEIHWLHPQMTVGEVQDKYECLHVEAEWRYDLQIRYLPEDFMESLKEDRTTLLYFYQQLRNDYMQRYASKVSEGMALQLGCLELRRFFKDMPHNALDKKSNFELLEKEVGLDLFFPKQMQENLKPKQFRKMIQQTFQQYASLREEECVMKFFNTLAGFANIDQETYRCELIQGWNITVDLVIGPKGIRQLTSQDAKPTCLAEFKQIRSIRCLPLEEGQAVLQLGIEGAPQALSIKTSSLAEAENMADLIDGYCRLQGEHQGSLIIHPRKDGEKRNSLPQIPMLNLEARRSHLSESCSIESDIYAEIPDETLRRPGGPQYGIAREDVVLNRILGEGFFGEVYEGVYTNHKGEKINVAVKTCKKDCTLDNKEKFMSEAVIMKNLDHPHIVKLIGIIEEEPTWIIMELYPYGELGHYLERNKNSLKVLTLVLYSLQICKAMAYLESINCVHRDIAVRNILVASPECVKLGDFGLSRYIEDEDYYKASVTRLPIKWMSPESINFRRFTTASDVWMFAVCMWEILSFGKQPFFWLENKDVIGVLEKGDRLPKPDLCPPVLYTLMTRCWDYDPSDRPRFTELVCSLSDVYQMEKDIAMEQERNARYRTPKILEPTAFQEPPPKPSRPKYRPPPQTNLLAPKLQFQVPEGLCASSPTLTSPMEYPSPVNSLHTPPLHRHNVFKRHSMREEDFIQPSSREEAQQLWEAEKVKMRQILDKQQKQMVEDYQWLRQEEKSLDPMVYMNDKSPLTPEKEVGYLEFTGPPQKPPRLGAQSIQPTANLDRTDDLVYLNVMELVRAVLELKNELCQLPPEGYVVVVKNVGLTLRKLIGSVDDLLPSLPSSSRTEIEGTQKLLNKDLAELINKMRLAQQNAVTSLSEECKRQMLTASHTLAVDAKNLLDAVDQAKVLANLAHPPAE
Method: as §3, §4, §5

[10] = biological target: T1, Fgfr4; assay: Kinase inhibitor profiling, autophosphorylation; assay type: biochemical
Method: as §1, §4, §5

[11] = biological target: T2, SYK; assay: Kinase inhibitor profiling, autophosphorylation; assay type: biochemical
Method: as §1, §4, §5

[12] = biological target: T3, Kit; assay: Kinase inhibitor profiling, autophosphorylation; assay type: biochemical
Method: as §1, §4, §5

[13] = biological target: T6, PTK2B; assay: Kinase inhibitor profiling, autophosphorylation; assay type: biochemical
Method: as §1, §4, §5

[14] = system: FRK; assay: Kinase inhibitor profiling, autophosphorylation; assay type: biochemical
Method: as §1, §4, §5

[15] = system: tyrosine kinases reported to be the target of each inhibitor; details: read-out: reported IC50 concentration (1× concentration); for the kinase reported to be the target of the inhibitor; cited from earlier work
[16] = biological target: T7, EGFR (Homo sapiens, UniProt P00533); assay: EGFR binding assay, bound EGFR detected by its tyrosine kinase activity towards pEY; details: Grb2 plasmid, +EGFR, in presence of the peptide
T7 construct: autophosphorylated tyrosines (self-phosphorylated with ATP before use); purchased Sigma Chemical Co, MO
Method: Proteins were produced in an in vitro transcription and translation reaction using 40–100 ng of plasmid DNA. […] The unbound components of the reaction containing endogenous kinases were removed by three washes with TT-buffer (25 mM Tris-HCl buffer pH 7.4 and 0.004% Triton), two five minutes washings with high-salt wash buffer (25 mM Tris-HCl buffer pH 7.4, 0.004% Triton, 1M NaCl and 5 mM DTT) and 3 more washes with TT-buffer. […] The unbound EGFR was washed by 4 times washing with TT-buffer (25 mM Tris-HCl buffer pH 7.4 and 0.004% Triton). The amount of EGFR bound to the reticulocyte lysate expressed protein was determined by detecting the kinase activity of EGFR. A tyrosine kinase substrate, 5 nM pEY (poly Glu-Tyr, Sigma, MO) was added in a 50 μl reaction containing 5 mM MgCl2, 5 mM MnCl2, 100 μM ATP, 25 mM Tris-HCl buffer pH 7.4, 0.05 mM Na3VO4, 0.004% TritonX-100, 2 mM DTT and EDTA-free protease inhibitor (Roche Molecular Biochemicals). This mixture was incubated with shaking at room temperature for 1 or 12 hours to allow phosphorylation of the pEY substrate by the EGFR. […]
The unbound reagents were removed by one time washing with TT-buffer (25 mM Tris-HCl buffer pH 7.4 and 0.004% Triton), and the TAG label was detected in presence of 150 μl IPR assay buffer (0.4 mM Gly-Gly buffer, pH 7.8, 1 mM EDTA, 0.1 M TPA). The ECL signals were measured using an imaging plate reader.

Molecule: 3991628: IMAGE clone protein: EPHA7, Eph receptor A7 [compound 3991628]
- ECL signal [1]: 115,662
- ECL signal [2]: 39,967
- fold higher ECL signal than background produced by Mock (Luciferase) [2]: ~47 fold
- HTS signal [3]: 24,930

Molecule: O=C1Nc2ccccc2/C1=C/c1ccc[nH]1 [Oxindole 1]
- Inhibition specificity towards pEY phosphorylation at 10X IC50, Fgfr4 [4]: M (medium inhibition (“M”=between 25 to 50% of the activity remaining))
- Inhibition specificity towards pEY phosphorylation at 10X IC50, SYK [5]: L (low inhibition (“L”=between 50–75% of the activity remaining))
- Inhibition specificity towards pEY phosphorylation at 10X IC50, Kit [6]: H (high inhibition (“H”=less than 25% of the activity remaining))
- Inhibition specificity towards pEY phosphorylation at 10X IC50, HCK [7]: L (low inhibition (“L”=between 50–75% of the activity remaining))
- Inhibition specificity towards pEY phosphorylation at 10X IC50, CSK [8]: M (medium inhibition (“M”=between 25 to 50% of the activity remaining))
- Inhibition specificity towards pEY phosphorylation at 10X IC50, PTK2B [9]: M (medium inhibition (“M”=between 25 to 50% of the activity remaining))
- Inhibition specificity towards Autophosphorylation at 10X IC50, Fgfr4 [10]: L (low inhibition (“L”=between 50–75% of the activity remaining))
- Inhibition specificity towards Autophosphorylation at 10X IC50, SYK [11]: L (low inhibition (“L”=between 50–75% of the activity remaining))
- Inhibition specificity towards Autophosphorylation at 10X IC50, Kit [12]: M (medium inhibition (“M”=between 25 to 50% of the activity remaining))
- Inhibition specificity towards Autophosphorylation at 10X IC50, PTK2B [13]: L (low inhibition (“L”=between 50–75% of the activity remaining))

Molecule: CC(C)(C)n1nc(-c2ccc(Cl)cc2)c2c(N)ncnc21 [PP2]
- Inhibition specificity towards pEY phosphorylation at 10X IC50, Kit [6]: L (low inhibition (“L”=between 50–75% of the activity remaining))
- Inhibition specificity towards Autophosphorylation at 10X IC50, FRK [14]: L (low inhibition (“L”=between 50–75% of the activity remaining))
- IC50 [15]: 4 nM

Further lines, results first:

- ECL signal [16]: 7,348
Molecule: LPVPE(p)YINQSVPKRPAGSVC (LPVPE[pY]INQSVPKRPAGSVC) [Phosphopeptide]

- ECL signal [16]: 34,055
Molecule: Peptide: un-phosphorylated form of the EGFR 1063–1081 peptide (SEQ ID NO: 8) (LPVPEYINQSVPKRPAGSVC; Synthetic Fragment of EGFR-Y1068)

— US7063946B2, “Methods, reagents, kits and apparatus for protein function analysis” (Meso Scale Technologies, LLC., priority 2001, dated 2006)
